{"source": "patent US20130274838A1", "about": "“OPTICAL CONTROL OF CARDIAC FUNCTION” (The Research Foundation of State University of New York, priority 2010, published 2013)", "key": {"[1]": {"test_system": "cardiac syncytium of neonatal rat cardiomyocytes and HEK-ChR2 (gap junctional coupling)", "test": "Carbenoxolone uncoupling in cardiac syncytium, contractility under optical pacing", "format": "cell-based", "conditions": "200 μM carbenoxolone for 20 min without perfusion, contractility in response to optical pacing", "procedure": "Carbenoxolone, CBX, (Sigma), a gap junctional uncoupler, was used at a concentration 200 μM in the dual-patch experiments with canine cardiomyocytes and HEK-ChR2 or in the cardiac syncytium of neonatal rat cardiomyocytes and HEK-ChR2. In the latter case, CBX was applied for 20 min (without perfusion) in the co-cultures of HEK-ChR2 cells and cardiomyocytes. Contractility movies were recorded in response to optical pacing before and during administration of carbenoxolone, and upon washout to assess the role of gap junctional coupling in the functionality of the tandem cell unit. Microscopic imaging for confirmation of gene expression or for documenting contractions by optical excitation was done with the Olympus FluoView™ FV1000 confocal system at room temperature. An EMCCD camera (ImagEM EMCCD camera from Hamamatsu, Bridgewater, N.J.) attached to the Olympus FluoView™ FV1000 microscope was used to record contractility movies at 20 fps with 60× oil lens (NA=1.42) using SlideBook 5 software (Intelligent Imaging Innovations, Denver, Colo.). In addition, contractility response was also documented by automatic optical tracking of cell length at 250 Hz using an IonOptix videosystem (IonOptix) attached to a Nikon TE2000 inverted microscope."}, "[2]": {"test_system": "cell pairs of adult canine ventricular myocytes and HEK-ChR2 (gap junctional coupling)", "test": "Carbenoxolone uncoupling of tandem cell units, dual patch clamp with optical pacing", "format": "cell-based", "conditions": "200 μM carbenoxolone perfusion, light-triggered action potentials before, during and after washout (FIG. 5f)", "procedure": "Dual patch clamp experiments were performed within 48 hours after plating. Briefly, experiments were carried out on heterologous (HEK-ChR2— canine myocyte) cell pairs within 48 hours after plating, as described previously. A dual whole-cell voltage-clamp method was used to control and record the membrane potential of both cells and to measure associated membrane and junctional currents. Each cell of a pair was voltage clamped at the same potential by two separate patch clamp amplifiers (Axopatch 200, Axon Instruments). To record junctional conductance, brief voltage steps (±10 mV, 400 ms) were applied to one cell of a pair, whereas the other cell was held at constant voltage and the junctional currents were recorded from the unstepped cell. Membrane and action potentials were recorded in current-clamp mode. For electrical recordings, glass coverslips with adherent cells were transferred to an experimental chamber mounted on the stage of an inverted microscope (Olympus-IX71) equipped with a fluorescence imaging system. […] When filled, the resistance of the pipettes measured 1-4MΩ. […] Contractility movies were recorded in response to optical pacing before and during administration of carbenoxolone, and upon washout to assess the role of gap junctional coupling in the functionality of the tandem cell unit."}}}
{"smiles": "CC1(C)[C@@H](OC(=O)CCC(=O)O)CC[C@]2(C)[C@H]3C(=O)C=C4[C@@H]5C[C@@](C)(C(=O)O)CC[C@]5(C)CC[C@@]4(C)[C@]3(C)CC[C@@H]12", "note": "[cabenoxolone, carbenoxolone]", "values": [{"measurement": "effect of pharmacological uncoupling on light-sensitivity of the myocytes in the TCUs", "setting": "[1]", "value": "abolished the light-sensitivity of the myocytes in the TCUs"}, {"measurement": "effect of pharmacological uncoupling on light-sensitivity of the myocytes in the TCUs", "setting": "[2]", "value": "abolished the light-sensitivity of the myocytes in the TCUs"}]}
